Measurements from publication PMC3731256, “Optimization of Substituted 6-Salicyl-4-Anilinoquinazoline Derivatives as Dual EGFR/HER2 Tyrosine Kinase Inhibitors” (PLoS ONE, 2013).
Read-outs that look alike come from different tables or passages of the source.

Assays:
A431 cells = assay: Antiproliferation WST-1 assay, A431; type: cell-based, human
Method: (§1) WST-1 is better than MTT for analyzing cell proliferation, because it can be reduced to soluble formazan by dehydrogenase in mitochondria and has little toxicity to cells. Cell proliferation was determined using WST-1 dye (Beyotime Inst Biotech, China) according to manufacture’s instructions. Brieﬂy, 5 × 10^3 cells per well were seeded in a 96-well plate, grown at 37 ℃ for 24 h, and then placed in serum-starved conditions for a further 6 h. Subsequently, cells were treated with compounds (Table 1) at increasing concentrations in the presence of 10% FBS for 24 or 48h. After 10 µL WST-1 dye was added to each well, cells were incubated at 37 ℃ for 2 h and the absorbance was ﬁnally determined at 450 nm using a microplate reader.

human HER2 = biological target: T1, human HER2 (Homo sapiens, UniProt P04626); assay: HER2 kinase assay ([γ-32P] ATP, poly-Glu-Tyr); type: biochemical; details: phosphorylation of poly-Glu-Tyr copolymer; mean, >1 determination; read-out: Enzyme activity IC50 against HER2 kinase
T1 construct: The cytoplasmic domain (amino acids 676-1255) of human HER2; FLAG (DYKDDDD) (N); made in house
T1 sequence (P04626 676-1255): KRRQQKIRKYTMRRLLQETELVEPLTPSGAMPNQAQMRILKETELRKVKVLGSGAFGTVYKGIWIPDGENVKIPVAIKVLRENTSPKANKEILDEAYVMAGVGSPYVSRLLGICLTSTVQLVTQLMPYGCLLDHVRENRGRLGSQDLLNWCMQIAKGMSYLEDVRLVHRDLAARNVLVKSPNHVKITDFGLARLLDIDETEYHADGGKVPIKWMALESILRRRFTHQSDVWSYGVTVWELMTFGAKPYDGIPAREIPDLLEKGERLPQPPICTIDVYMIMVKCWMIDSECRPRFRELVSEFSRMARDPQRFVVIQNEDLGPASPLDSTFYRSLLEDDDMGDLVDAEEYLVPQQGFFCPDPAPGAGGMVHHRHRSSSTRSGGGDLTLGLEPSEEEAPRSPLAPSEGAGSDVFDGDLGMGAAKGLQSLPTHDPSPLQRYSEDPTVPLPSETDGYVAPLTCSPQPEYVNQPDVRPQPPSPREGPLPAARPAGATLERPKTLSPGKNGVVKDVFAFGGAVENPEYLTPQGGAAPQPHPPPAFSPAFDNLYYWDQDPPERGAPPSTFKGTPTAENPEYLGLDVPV
Method: (§2) The expressed HER2 kinase and EGFR kinase were purified by anti-FLAG M2 affinity gel (Sigma-Aldrich, USA). The HER2 and EGFR kinase assays were performed using radiolabeled [γ-^32P] ATP (GEHealthcare, USA) in 96-well plates. The kinase reactions were performed in 50 mmol/L Tris-HCl, pH7.5, 5 mmol/L MnCl2, 0.01% Tween-20 and 2 mmol/L DTT containing 0.9 μCi of [γ-^32P] ATP per reaction, 50 μmol/L ATP, 5 μg/mL poly-Glu-Tyr (4:1) and 0.25 μg/mL of purified Her2 or EGFR cytoplasmic domain in a total volume of 50 μL. […] Kinase reactions were initiated by adding ATP. After the kinase reaction incubated for 10 minutes at room temperature, reactions were terminated by the addition of 10% (final concentration) trichloroacetic acid. The [γ-^32P]-phosphorylated proteins were filtered in a harvest plate (Millipore, USA) with a cell harvester (PerkinElmer, USA) and washed free of [γ-^32P] ATP with 3% phosphoric acid. The plates were dried, followed by the addition of 25 μL of MicroScintO (PerkinElmer, USA). Radioactivity was counted by a Topcount scintillation counter (PerkinElmer, USA).

MCF-7 cells = assay: Antiproliferation WST-1 assay, MCF-7; type: cell-based, human
Method: as §1

human EGFR = biological target: T2, human EGFR (Homo sapiens, UniProt P00533); assay: EGFR kinase assay ([γ-32P] ATP, poly-Glu-Tyr); type: biochemical; details: phosphorylation of poly-Glu-Tyr copolymer; mean, >1 determination; read-out: Enzyme activity IC50 against EGFR kinase
T2 construct: the cytoplasmic domain (amino acids 669-1210) of human EGFR; FLAG (DYKDDDD) (N); made in house
T2 sequence (P00533 669-1210): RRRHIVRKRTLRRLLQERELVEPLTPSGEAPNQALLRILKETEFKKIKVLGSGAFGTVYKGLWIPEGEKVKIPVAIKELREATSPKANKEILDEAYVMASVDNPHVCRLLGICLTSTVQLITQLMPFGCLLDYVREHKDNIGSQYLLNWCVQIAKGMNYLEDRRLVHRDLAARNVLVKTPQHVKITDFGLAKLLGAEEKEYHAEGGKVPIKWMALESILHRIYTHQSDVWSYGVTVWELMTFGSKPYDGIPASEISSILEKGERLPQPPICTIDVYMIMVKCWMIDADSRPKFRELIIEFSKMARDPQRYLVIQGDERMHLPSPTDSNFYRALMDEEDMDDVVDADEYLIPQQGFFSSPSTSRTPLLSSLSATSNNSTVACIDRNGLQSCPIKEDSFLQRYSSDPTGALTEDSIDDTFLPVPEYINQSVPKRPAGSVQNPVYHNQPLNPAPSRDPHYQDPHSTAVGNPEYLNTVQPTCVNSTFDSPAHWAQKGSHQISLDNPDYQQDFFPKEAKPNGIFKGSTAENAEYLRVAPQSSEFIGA
Method: as §2

A549 cells = assay: Antiproliferation WST-1 assay, A549; type: cell-based, human
Method: as §1

H1781 cells = assay: Antiproliferation WST-1 assay, H1781; type: cell-based; details: NCI-H1781, NSCLC, HER-2 G776ins V_G/C, lapatinib-resistant
Method: as §1

MDA-MB-453 cells = assay: Antiproliferation WST-1 assay, MDA-MB-453; type: cell-based; details: Homo sapiens, breast cancer, HER-2++, PTEN deficiency
Method: as §1

H1975 cells = assay: Antiproliferation WST-1 assay, H1975; type: cell-based; details: Homo sapiens, NCI-H1975, NSCLC, EGFR L858R/T790M
Method: as §1

[1] = Homo sapiens, A-431, WST-1 assay, A431, overexpression of EGFR, read-out: Cellular IC50, A431
[2] = Homo sapiens, MCF7, WST-1 assay, MCF-7 breast cancer, Her2/neu overexpression, read-out: Cellular IC50, MCF-7
[3] = WST-1 assay, A549 carcinomic human alveolar basal epithelial cell, read-out: Cellular IC50, A549
[4] = WST-1 assay, A431, overexpression of EGFR, read-out: Cellular IC50, A431
[5] = WST-1 assay, MCF-7 breast cancer, Her2/neu overexpression, read-out: Cellular IC50, MCF-7
[6] = Homo sapiens, MCF7, read-out: Cellular IC50, MCF-7
[7] = Homo sapiens, A549, read-out: Cellular IC50, A549

| SMILES | IC50 (A431 cells; [1]) [nM] | melting point [°C] | IC50 (human HER2) [nM] | IC50 (MCF-7 cells; [2]) [nM] | IC50 (human EGFR) [nM] | IC50 (A549 cells; [3]) [nM] | IC50 (A431 cells; [4]) [nM] | IC50 (MCF-7 cells; [5]) [nM] | IC50 (A431 cells; Homo sapiens, A-431, read-out: Cellular IC50, A431) [nM] | IC50 (H1781 cells) [nM] | IC50 (MCF-7 cells; [6]) [nM] | IC50 (MDA-MB-453 cells) [nM] | IC50 (H1975 cells) [nM] | IC50 (A549 cells; [7]) [nM] |
| --- | --- | --- | --- | --- | --- | --- | --- | --- | --- | --- | --- | --- | --- | --- |
| O=C(Nc1ccc2ncnc(Nc3cccc(Br)c3)c2c1)c1cc(Br)cc(Br)c1O [Compound 20, 3,5-dibromo-N-(4-(3-bromophenylamino)quinazolin-6-yl)-2-hydroxybenzamide] | 1390 ± 23 | 274 to 276 | 2100 ± 66 | 1310 ± 29 | 1400 ± 23 | 1800 ± 167 | – | – | – | – | – | – | – | – |
| Oc1ccc(Br)cc1CNc1ccc2ncnc(Nc3cccc(Br)c3)c2c1 [Compound 11, 4-bromo-2-((4-(3-bromophenylamino)quinazolin-6-ylamino)methyl)phenol] | 870 ± 9 | 189 to 191 | 1400 ± 3 | 900 ± 18 | 570 ± 8 | 2130 ± 128 | – | – | – | – | – | – | – | – |
| Oc1ccc(Cl)cc1CNc1ccc2ncnc(Nc3cccc(Cl)c3)c2c1 [Compound 13, 4-chloro-2-((4-(3-chlorophenylamino)quinazolin-6-ylamino)methyl)phenol] | < 1000 | 238 to 240 | 2300 ± 34 | < 1000 | 830 ± 65 | 2170 ± 49 | 1260 ± 51 | 920 ± 12 | – | – | – | – | – | – |
| Oc1ccc(Cl)cc1CNc1ccc2ncnc(Nc3cccc(Br)c3)c2c1 [Compound 9, 2-((4-(3-bromophenylamino)quinazolin-6-ylamino)methyl)-4-chlorophenol] | < 1000 | 230 to 232 | 1700 ± 51 | < 1000 | 410 ± 24 | 2370 ± 89 | 980 ± 3 | 770 ± 8 | – | – | – | – | – | – |
| Nc1ccc2ncnc(Nc3cccc(Br)c3)c2c1 [Compound 7, N4-(3-bromophenyl)quinazoline-4,6-diamine] | – | – | – | < 1000 | – | – | – | – | < 1000 | – | – | – | – | – |
| CCOc1ccccc1C(=O)Nc1ccc2ncnc(Nc3cccc(Cl)c3)c2c1 [Compound 26, N-(4-(3-chlorophenylamino)quinazolin-6-yl)-2-ethoxybenzamide] | 760 ± 2 | 111 to 113 | 4100 ± 91 | 820 ± 82 | 6300 ± 76 | 1580 ± 93 | – | – | – | – | – | – | – | – |
| Oc1c(Cl)cc(Cl)cc1CNc1ccc2ncnc(Nc3cccc(Cl)c3)c2c1 [Compound 14, 2,4-dichloro-6-((4-(3-chlorophenylamino)quinazolin-6-ylamino)methyl)phenol] | 920 ± 62 | 211 to 213 | 920 ± 9 | 800 ± 5 | 650 ± 9 | 1590 ± 38 | – | – | – | – | – | – | – | – |
| O=C(Nc1ccc2ncnc(Nc3cccc(Br)c3)c2c1)c1cc(Br)ccc1O [Compound 18, 5-bromo-N-(4-(3-bromophenylamino)quinazolin-6-yl)-2-hydroxybenzamide] | 1620 ± 8 | 297 to 299 | 1600 ± 12 | 1230 ± 35 | 1300 ± 98 | 800 ± 4 | – | – | – | – | – | – | – | – |
| CS(=O)(=O)CCNCc1ccc(-c2ccc3ncnc(Nc4ccc(OCc5cccc(F)c5)c(Cl)c4)c3c2)o1 [Lapatinib, reference compound] | – | – | – | – | – | – | – | – | – | 2100 ± 34 | 210 ± 3 | 720 ± 23 | 3900 ± 419 | 1120 ± 22 |
| O=C(Nc1ccc2ncnc(Nc3cccc(Br)c3)c2c1)c1ccc(Cl)cc1 [Compound 27, N-(4-(3-bromophenylamino)quinazolin-6-yl)-4-chlorobenzamide] | 1480 ± 34 | 230 to 232 | 4600 ± 226 | 1290 ± 76 | 7700 ± 88 | 1780 ± 34 | – | – | – | – | – | – | – | – |
| Cc1ccc(C(=O)Nc2ccc3ncnc(Nc4cccc(Cl)c4)c3c2)c(O)c1 [Compound 24, N-(4-(3-chlorophenylamino)quinazolin-6-yl)-2-hydroxy-4-methylbenzamide] | 630 ± 4 | 257 to 258 | 2000 ± 182 | 470 ± 4 | 490 ± 3 | 1300 ± 12 | – | – | – | – | – | – | – | – |
| O=C(Nc1ccc2ncnc(Nc3cccc(Cl)c3)c2c1)c1ccccc1O [Compound 22, N-(4-(3-chlorophenylamino)quinazolin-6-yl)-2-hydroxybenzamide] | 740 ± 6 | 117 to 120 | 840 ± 3 | 610 ± 5 | 160 ± 7 | 1390 ± 54 | – | – | – | – | – | – | – | – |
| O=C(Nc1ccc2ncnc(Nc3cccc(Cl)c3)c2c1)c1ccc(Cl)cc1O [Compound 23, 4-chloro-N-(4-(3-chlorophenylamino)quinazolin-6-yl)-2-hydroxybenzamide] | 840 ± 9 | 211 to 213 | 1200 ± 22 | 550 ± 7 | 320 ± 8 | 1360 ± 16 | – | – | – | – | – | – | – | – |
| Oc1c(Br)cc(Br)cc1CNc1ccc2ncnc(Nc3cccc(Br)c3)c2c1 [Compound 12, 2,4-dibromo-6-((4-(3-bromophenylamino)quinazolin-6-ylamino)methyl)phenol] | < 1000 | 169 to 171 | 980 ± 2 | < 1000 | 950 ± 72 | 1820 ± 62 | 1140 ± 36 | 1070 ± 16 | – | – | – | – | – | – |
| O=C(Nc1ccc2ncnc(Nc3cccc(Cl)c3)c2c1)c1cc(Br)ccc1O [Compound 25, 5-bromo-N-(4-(3-chlorophenylamino)quinazolin-6-yl)-2-hydroxybenzamide] | 880 ± 11 | 299 to 301 | 2600 ± 133 | 740 ± 13 | 580 ± 7 | 1690 ± 78 | – | – | – | – | – | – | – | – |
| O=C(Nc1ccc2ncnc(Nc3cccc(Br)c3)c2c1)c1ccc(Cl)cc1O [Compound 17, N-(4-(3-bromophenylamino)quinazolin-6-yl)-4-chloro-2-hydroxybenzamide] | 1460 ± 27 | 274 to 277 | 2800 ± 3.1 | 1210 ± 29 | 1200 ± 71 | 1590 ± 35 | – | – | – | – | – | – | – | – |
| Oc1c(Cl)cc(Cl)cc1CNc1ccc2ncnc(Nc3cccc(Br)c3)c2c1 [Compound 10, 2-((4-(3-bromophenylamino)quinazolin-6-ylamino)methyl)-4,6-dichlorophenol] | 1030 ± 27 | 214 to 216 | 1100 ± 95 | 840 ± 4 | 720 ± 36 | 1930 ± 71 | – | – | – | – | – | – | – | – |
| Oc1ccc(Br)cc1CNc1ccc2ncnc(Nc3cccc(Cl)c3)c2c1 [Compound 15, 4-bromo-2-((4-(3-chlorophenylamino)quinazolin-6-ylamino)methyl)phenol] | 960 ± 5 | 227 to 229 | 3800 ± 2 | 810 ± 33 | 760 ± 73 | 2120 ± 22 | – | – | – | – | – | – | – | – |
| C#Cc1cccc(Nc2ncnc3cc(OCCOC)c(OCCOC)cc23)c1 [Erlotinib, reference compound] | – | – | – | – | – | – | – | – | – | – | 1070 ± 28 | – | – | 920 ± 13 |
| Oc1c(Br)cc(Br)cc1CNc1ccc2ncnc(Nc3cccc(Cl)c3)c2c1 [Compound 16, 2,4-dibromo-6-((4-(3-chlorophenylamino)quinazolin-6-ylamino)methyl)phenol] | 1320 ± 126 | 207 to 209 | 2100 ± 8.7 | 990 ± 6 | 890 ± 53 | 1650 ± 94 | – | – | – | – | – | – | – | – |
| O=C(Nc1ccc2ncnc(Nc3cccc(Br)c3)c2c1)c1cc(Cl)ccc1O [Compound 19, N-(4-(3-bromophenylamino)quinazolin-6-yl)-5-chloro-2-hydroxybenzamide] | 1280 ± 13 | 304 to 306 | 1800 ± 9 | 1120 ± 87 | 1070 ± 18 | 1770 ± 56 | – | – | – | – | – | – | – | – |
